Measurements from ChEMBL document CHEMBL3885881, “DrugMatrix”.

Species on record: Rattus norvegicus
Experiment: DrugMatrix - Regimen: Daily Repeat
Assay type: toxicity, organism-based, Sprague-Dawley
Set-up: regimen Daily Repeat, gender Male, age 6-8 weeks
Conditions: in vivo, iv, […], dose 0.56 mg/Kg, dose level High, vehicle 100 % SALINE
[1] = 72 h, tissue Plasma, time 3 day
[2] = 120 h, tissue Blood, time 5 day
[3] = 120 h, tissue Plasma, time 5 day

INSULIN HUMAN
ABSOLUTE EOSINOPHIL (72 h, tissue Blood, time 3 day): 0 CELLS/uL | ABSOLUTE LYMPHOCYTE (72 h, tissue Blood, time 3 day): 9557.33 CELLS/uL | ABSOLUTE MONOCYTE (72 h, tissue Blood, time 3 day): 233.33 CELLS/uL | ABSOLUTE SEGMENTED NEUTROPHIL (72 h, tissue Blood, time 3 day): 942.67 CELLS/uL | BASOPHIL (72 h, tissue Blood, time 3 day): 0% | EOSINOPHIL (72 h, tissue Blood, time 3 day): 0% | ERYTHROCYTE COUNT (72 h, tissue Blood, time 3 day): 5.18 x10E6/uL | HEMATOCRIT (72 h, tissue Blood, time 3 day): 33.13% | HEMOGLOBIN (72 h, tissue Blood, time 3 day): 12.73 G/DL | LEUKOCYTE COUNT (72 h, tissue Blood, time 3 day): 10.73 x10E3/uL | LYMPHOCYTE (72 h, tissue Blood, time 3 day): 89.33% | MEAN CORPUSCULAR HEMOGLOBIN (72 h, tissue Blood, time 3 day): 24.6 pg | MEAN CORPUSCULAR HEMOGLOBIN CONCENTRATION (72 h, tissue Blood, time 3 day): 38.43 G/DL | MEAN CORPUSCULAR VOLUME (72 h, tissue Blood, time 3 day): 64 fL | MONOCYTE (72 h, tissue Blood, time 3 day): 2% | NUCLEATED RED BLOOD CELLS (72 h, tissue Blood, time 3 day): 0.33 /100WBC | PLATELET COUNT (72 h, tissue Blood, time 3 day): 1173.33 x10E3/uL | ALANINE AMINOTRANSFERASE [1]: 50.67 u/L | ALBUMIN [1]: 3.9 G/DL | ALKALINE PHOSPHATASE [1]: 425.67 u/L | ASPARTATE AMINOTRANSFERASE [1]: 87.67 u/L | BLOOD UREA NITROGEN [1]: 16 mg/dL | CARBON DIOXIDE [1]: 29.33 mmol/L | CHLORIDE [1]: 98 MEQ/L | CHOLESTEROL [1]: 73.33 mg/dL | CREATINE PHOSPHOKINASE [1]: 247.67 u/L | CREATININE [1]: 0.2 mg/dL | GLUCOSE [1]: 158.67 mg/dL | LACTATE DEHYDROGENASE [1]: 90.33 u/L | LIPASE [1]: 12 u/L | POTASSIUM [1]: 5.04 MEQ/L | SODIUM [1]: 140.73 MEQ/L | TOTAL BILIRUBIN [1]: 0.17 mg/dL | TOTAL PROTEIN [1]: 6.1 G/DL | URIC ACID [1]: 0.33 mg/dL | ABSOLUTE BASOPHIL [2]: 0 CELLS/uL | ABSOLUTE EOSINOPHIL [2]: 0 CELLS/uL | ABSOLUTE LYMPHOCYTE [2]: 9972 CELLS/uL | ABSOLUTE MONOCYTE [2]: 151.33 CELLS/uL | ABSOLUTE SEGMENTED NEUTROPHIL [2]: 1610 CELLS/uL | BASOPHIL [2]: 0% | EOSINOPHIL [2]: 0% | ERYTHROCYTE COUNT [2]: 5.32 x10E6/uL | HEMATOCRIT [2]: 33.67% | LEUKOCYTE COUNT [2]: 11.73 x10E3/uL | LYMPHOCYTE [2]: 85% | MEAN CORPUSCULAR HEMOGLOBIN [2]: 24.17 pg | MEAN CORPUSCULAR HEMOGLOBIN CONCENTRATION [2]: 38.23 G/DL | NEUTROPHIL [2]: 13.67% | NUCLEATED RED BLOOD CELLS [2]: 0.33 /100WBC | PLATELET COUNT [2]: 1293.67 x10E3/uL | ALANINE AMINOTRANSFERASE [3]: 53.33 u/L | ALKALINE PHOSPHATASE [3]: 426 u/L | ASPARTATE AMINOTRANSFERASE [3]: 73 u/L | BLOOD UREA NITROGEN [3]: 14.67 mg/dL | CARBON DIOXIDE [3]: 34.67 mmol/L | CHLORIDE [3]: 98 MEQ/L | CREATINE PHOSPHOKINASE [3]: 305 u/L | CREATININE [3]: 0.27 mg/dL | GLUCOSE [3]: 134.67 mg/dL | LACTATE DEHYDROGENASE [3]: 124.33 u/L | LIPASE [3]: 7.67 u/L | PHOSPHORUS [3]: 10.33 mg/dL | POTASSIUM [3]: 5.91 MEQ/L | TOTAL BILIRUBIN [3]: 0.2 mg/dL | TOTAL PROTEIN [3]: 6.23 G/DL | URIC ACID [3]: 0.6 mg/dL
